{
  "source": "patent US20140349924A1",
  "about": "(Novo Nordisk A/S, priority 2007, published 2014)",
  "key": {"[1]": {"conditions": "293.2 Kelvin; static electric fields or relatively low frequencies; cited from earlier work"}, "[2]": {"assay": "freshly excised rat gut sacs (small intestine) incubated in culture medium pH 7.4", "conditions": "37° C, up to 2 h"}, "[3]": {"conditions": "freeze dried from aqueous solutions with pH moved below the isoelectric point; cited from earlier work"}},
  "data": [
    {"compound": "CO", "note": "[Methanol]", "values": [
      {"measurement": "Dielectricity constant, ε*", "setting": "[1]", "result": 33.0}
    ]},
    {"compound": "Asp^B28 human insulin", "values": [
      {"measurement": "fragment found", "setting": "[2]", "result": "degradation product (peak ˜5218), 2 h"}
    ]},
    {"compound": "lysozyme: lysozyme lyophilized from aqueous solution, literature example (Klibanov et al)", "values": [
      {"measurement": "Solubility in 1,5 pentanediol", "setting": "[3]", "result": "markedly increased"}
    ]}
  ]
}
